From paper PMC12666486, “Novel dimeric dual-modality FAP-targeted agents with favorable tumor retention for image-guided surgery: a preclinical study” (European Journal of Nuclear Medicine and Molecular Imaging, 2025)

How the values were obtained:
[1] = tested on: HT1080hFAP cells; assay: Radioactive-based cell efflux study; parameters: species or system human; conditions: 2 h post-initial incubation
Procedure: For cell efflux studies, 1.0 × 10^6 HT1080hFAP cells were seeded in 6-well plates and cultivated for 48 h. On the day of the experiment, the cells in each well were washed twice with 1.5 mL of culturing medium and then incubated with the Gallium-68 labelled radiotracer at a final concentration of 1 nM/well for 1 h at 37 °C. The medium containing the unbound radiotracer was then replaced with either fresh medium or a 1 µM FAPI-46 solution in cell medium for blocking condition.
Subsequently, at specific time points, the radioactive medium was removed and collected together with two PBS/0.5% (w/v) BSA washes before adding 1 mL of fresh medium or FAPI-46 blocking solution. Finally, 2 h after the end of the first incubation, the cells were lyzed with 1 mL of 1 M NaOH. All collected fractions were measured in the γ-counter and the percentage of cell-associated activity at different time points relative to the total, corresponding to 1 h after incubation, was reported. The number of experimental replicates performed for each assay is specified in the respective figure legends.

[2] = tested on: HT1080hFAP tumor; assay: Static PET/CT imaging of xenografted mice; type: in vivo, BALB/c nude mice; conditions: 1.0 nmol, one mouse per compound
Procedure: For the induction of tumor xenografts, 2 × 10^6 of HT1080hFAP or HT1080 cells in 100 μL appropriate medium were subcutaneously injected in the right and left flank of each mouse (athymic female BALB/c nude), respectively. The tumors were allowed to grow until they had reached a volume of 0.3 to 0.8 cm^3. […] To evaluate ex vivo biodistribution on tumor models, 3 mouse xenografts were injected with 0.25 nmol of Gallium-67 labelled tracer (0.4 MBq) and then sacrificed after 1 h, 4 h and 1 day. For the PET/CT imaging study one xenograft-bearing mouse (tumor volume in the range 0.6–1.0 cm^3) was injected with 1.0 nmol of Gallium-68 labelled tracer (5–8 MBq). […] The images were visualized, processed, and quantified in Mediso InterView FUSION (Mediso Medical Imaging Systems, Budapest, Hungary). […] The results were expressed as percentages of injected dose per gram tissue (% ID/g). For the comparative imaging study (SPECT and in vivo fluorescence imaging), one xenograft-bearing mouse (tumor volume in the range 0.2–0.7 cm^3) was injected with 1.5–2 nmol of Gallium-67 tracer (15–17 MBq) and imaged at various time points up to 2 days p.i. […] The images were visualized, processed, and quantified in Mediso InterView FUSION (Mediso Medical Imaging Systems, Budapest, Hungary). […] The fluorescence emission was reported as photons/s/mm^2.

[3] = ref 3 (supplement); cited from earlier work
[4] = parameters: method as in manufacturers; conditions: unconjugated dyes; ref manufacturers; cited from earlier work

Row | Structure (SMILES) | Stokes shift [4] | λEm (nm) [4] [nm] | λEx (nm) [4] [nm] | also measured
1 | CN(CCCN1CCN(C(=O)CN2CCN(CC(=O)[O-])CCN(CC(=O)[O-])CCN(CC(=O)[O-])CC2)CC1)c1ccc2nccc(C(=O)NCC(=O)N3CC(F)(F)C[C@H]3C#N)c2c1.[68Ga+3] [[^68Ga]Ga-FAPI-46] | – | – | – | Retained activity, % of the internalized fraction ([1]; blocking with 1 µM FAPI-46, 1 nM): 9.4 ± 1.5%; Retained activity, % of the internalized fraction ([1]; without blocking, 1 nM): 21.9 ± 1.4%; %ID/g in FAP(+)T (PET/CT, manually drawn ROI) ([2]; 1h p.i.): 3.4 %ID/g; %ID/g in FAP(+)T (PET/CT, manually drawn ROI) ([2]; 2h p.i.): 3.1 %ID/g
2 | CC(=O)NC1CCCN(O)C(=O)/C=C(/C)CCOC(=O)C(NC(C)=O)CCCN(O)C(=O)/C=C(/C)CCOC(=O)C(NC(C)=O)CCCN(O)C(=O)/C=C(/C)CCOC1=O (centres unmarked) [TAFC] | – | – | – | LogDpH7.4 [3]: -2.08 ± 0.02
3 | CC1(C)C(=CC=C2CCCC(C=CC3=[N+](CCC[N+](C)(C)C)c4ccc(S(=O)(=O)O)cc4C3(C)C)=C2Oc2ccc(CCC(=O)O)cc2)N(CCC[N+](C)(C)C)c2ccc(S(=O)(=O)O)cc21 [ZW800] | 18 | 786 | 768 | –
4 | CC1(C)C(=CC=C2CCCC(C=CC3=[N+](CCCCCC(=O)[O-])c4ccc(S(=O)(=O)[O-])cc4C3(C)C)=C2Oc2ccc(S(=O)(=O)[O-])cc2)N(CCCCS(=O)(=O)[O-])c2ccc(S(=O)(=O)[O-])cc21.[Na+].[Na+].[Na+].[Na+] [IRDye-800CW] | 17 | 792 | 775 | –
